Data as given in ChEMBL document CHEMBL1201862, “PubChem BioAssay data set” (2004).
The source made the active and inactive calls.

Tests used:
[1] = Luminescence Cell-Based Dose Retest to Confirm Inhibitors of Cancer Stem Cells. [Related pubchem assays (depositor defined):AID2717, AID2721]; type: functional; settings: Homo sapiens
Paired box protein Pax-8 = Paired box protein Pax-8 (Homo sapiens, UniProt Q06710); test: PAX8 transcriptional activity inhibition in RMG-I – RMG-I cells, luciferase, cherry-pick, dose response (AID 687027); type: functional, cell-based;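 further: luciferase reporter driven by Pax8 target thyroperoxidase promoter measured by SteadyGlo luminescence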
Paired box protein Pax-8, sequence (Q06710 whole entry): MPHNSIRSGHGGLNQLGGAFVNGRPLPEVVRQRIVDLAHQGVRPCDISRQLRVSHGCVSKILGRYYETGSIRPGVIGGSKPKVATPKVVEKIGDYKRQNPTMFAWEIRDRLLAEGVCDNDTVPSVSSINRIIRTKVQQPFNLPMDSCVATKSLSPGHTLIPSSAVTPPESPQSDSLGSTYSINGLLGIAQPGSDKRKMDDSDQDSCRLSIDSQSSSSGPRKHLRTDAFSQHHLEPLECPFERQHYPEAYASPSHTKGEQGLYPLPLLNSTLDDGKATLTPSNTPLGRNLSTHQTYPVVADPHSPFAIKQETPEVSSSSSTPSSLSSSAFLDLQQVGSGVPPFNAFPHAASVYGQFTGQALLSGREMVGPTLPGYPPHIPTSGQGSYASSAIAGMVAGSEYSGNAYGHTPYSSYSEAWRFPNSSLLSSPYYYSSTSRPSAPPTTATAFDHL

[2] = loss of viability in HepG2 cells – cell-based, CellTiter-Glo, cherry-picked, cytotoxicity control for Shn3 inhibitor project, dose response (AID 624134); type: functional
[3] = reduction of Shn3 3'UTR-driven luciferase in osteoblasts – cell-based, Clone20 osteoblasts, firefly luciferase, cherry-picked, dose response (AID 624132); type: functional;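 further: firefly luciferase luminescence from reporter carrying the Shn3 3'UTR in osteoblasts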
[4] = general cell-killing toxicity readout – plate reader, dry powder samples, cytotoxicity control for PAX8 inhibitor project, dose response (AID 743021); type: functional, cell-based
[5] = blockade of melanocortin 4 receptor signaling – cell-based, plate reader, cherry pick, counter-screen for LGR2 antagonist project, dose response (AID 743444); type: functional;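 further: transfected HEK 293 cells stimulated with alpha-MSH peptide; potency of inhibitors of the alpha-MSH evoked signal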
[6] = blockers of bursicon-stimulated LGR2 cAMP reporter – cell-based, HEK293, CRE-luciferase reporter, cherry pick, set 2, dose response (AID 743343); type: functional;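 further: transfected cells were stimulated with diluted bursicon conditioned medium after compound addition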
HEK293 = test: EBV LMP1 TES2 canonical NF-kB signalling blockers – cell-based, HEK293, luciferase, cherry-pick, dose response (AID 588343); type: functional; settings: Homo sapiens
[7] = target: T1, Carboxy-terminal domain RNA polymerase II polypeptide A small phosphatase 1 (Homo sapiens, UniProt Q9GZU7); test: CTDSP1 inhibitors, concentration-response, biochemical, absorbance readout, ultra-high-throughput screen actives (AID 540297); type: functional
T1 sequence (Q9GZU7 whole entry): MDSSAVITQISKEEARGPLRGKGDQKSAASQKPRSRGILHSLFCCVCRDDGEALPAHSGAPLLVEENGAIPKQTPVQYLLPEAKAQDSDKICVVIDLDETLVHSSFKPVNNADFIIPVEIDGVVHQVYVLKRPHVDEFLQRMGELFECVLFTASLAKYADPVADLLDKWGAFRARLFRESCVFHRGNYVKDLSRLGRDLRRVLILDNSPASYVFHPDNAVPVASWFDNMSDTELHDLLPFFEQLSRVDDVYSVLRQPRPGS

[8] = blockers of HIV-1 ZM109 envelope-driven cell-cell fusion – HeLa effector, CEM target cells, luciferase, cherry-pick, dose response (AID 652058); type: functional, cell-based;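 further: luciferase signal from HIV-1 Env mediated cell-cell fusion of effector and target cells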
INS1 = test: INS-1E survival protection against cytokine death – cell-based, luminescence, retest, dose response (AID 449756); type: functional; settings: Rattus norvegicus;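 further: cell death triggered by IL-1 beta plus TNF-alpha plus IFN-gamma mixture; protective hits raise ATP signal compared with cytokine alone wells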
[9] = HIV-1 AD8 envelope cell-cell fusion blockers – cherry-pick, dose response (AID 652062); type: functional, cell-based;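 further: luciferase signal from cell-cell fusion driven by HIV-1 clade B AD8 Env; potency is for inhibitors of fusion seen as a drop in luminescence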
Cytochrome P450 1A2 = target: T2, Cytochrome P450 1A2 (Homo sapiens, UniProt P05177);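 further: PubChem cytochrome P450 panel assay, CYP1A2 panel member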
T2 sequence (P05177 whole entry): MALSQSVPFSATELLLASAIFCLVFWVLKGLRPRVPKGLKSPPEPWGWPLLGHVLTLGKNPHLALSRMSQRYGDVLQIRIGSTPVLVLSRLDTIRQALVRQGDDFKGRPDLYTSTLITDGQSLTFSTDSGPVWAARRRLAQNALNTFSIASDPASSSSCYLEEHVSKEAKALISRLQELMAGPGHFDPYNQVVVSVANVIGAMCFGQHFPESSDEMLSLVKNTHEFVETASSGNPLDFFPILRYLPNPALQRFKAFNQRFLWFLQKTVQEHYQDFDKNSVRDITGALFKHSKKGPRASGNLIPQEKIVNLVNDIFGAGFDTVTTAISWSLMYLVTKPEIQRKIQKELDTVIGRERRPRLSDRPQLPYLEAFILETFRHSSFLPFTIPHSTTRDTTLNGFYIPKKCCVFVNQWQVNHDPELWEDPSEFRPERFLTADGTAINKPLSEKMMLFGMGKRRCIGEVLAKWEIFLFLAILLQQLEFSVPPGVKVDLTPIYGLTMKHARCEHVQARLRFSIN

[10] = blockers of HIV-1 envelope-mediated cell-cell fusion – cherry-pick, dose response (AID 652057); type: functional, cell-based
Protein RecA = target: T3, Protein RecA (Mycobacterium tuberculosis, UniProt P9WHJ3); test: Fluorescence Cell-Free Homogeneous Dose Retest to Identify Inhibitors of RecA-Intein Splicing Activity. [Related pubchem assays (depositor defined):AID2097, AID2223, AID489010, AID492950]; type: functional
T3 sequence (P9WHJ3 whole entry): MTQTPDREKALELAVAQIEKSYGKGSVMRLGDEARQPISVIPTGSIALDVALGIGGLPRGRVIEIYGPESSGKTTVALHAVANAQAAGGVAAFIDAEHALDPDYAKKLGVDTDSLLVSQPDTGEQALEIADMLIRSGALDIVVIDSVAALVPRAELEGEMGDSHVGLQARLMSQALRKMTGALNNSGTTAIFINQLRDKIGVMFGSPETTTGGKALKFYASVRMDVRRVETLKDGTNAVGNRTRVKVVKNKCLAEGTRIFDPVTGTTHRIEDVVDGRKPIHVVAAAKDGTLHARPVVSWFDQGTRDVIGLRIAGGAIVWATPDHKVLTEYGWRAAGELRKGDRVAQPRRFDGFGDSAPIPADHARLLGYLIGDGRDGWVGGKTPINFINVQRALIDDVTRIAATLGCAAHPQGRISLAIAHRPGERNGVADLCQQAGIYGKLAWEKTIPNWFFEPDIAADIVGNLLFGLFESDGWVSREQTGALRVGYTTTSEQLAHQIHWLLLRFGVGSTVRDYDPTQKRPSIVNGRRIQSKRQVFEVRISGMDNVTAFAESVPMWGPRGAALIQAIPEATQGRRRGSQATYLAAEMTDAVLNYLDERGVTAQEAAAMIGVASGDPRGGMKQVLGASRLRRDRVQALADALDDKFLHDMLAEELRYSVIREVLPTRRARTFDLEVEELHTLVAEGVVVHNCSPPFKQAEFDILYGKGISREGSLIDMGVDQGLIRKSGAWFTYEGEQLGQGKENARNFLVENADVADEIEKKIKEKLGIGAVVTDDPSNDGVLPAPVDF

Nonstructural protein 1 = Nonstructural protein 1 (Influenza A virus, UniProt Q194T2); type: functional, Influenza A virus (A/California/07/2009(H1N1))
Nonstructural protein 1, sequence (Q194T2 whole entry): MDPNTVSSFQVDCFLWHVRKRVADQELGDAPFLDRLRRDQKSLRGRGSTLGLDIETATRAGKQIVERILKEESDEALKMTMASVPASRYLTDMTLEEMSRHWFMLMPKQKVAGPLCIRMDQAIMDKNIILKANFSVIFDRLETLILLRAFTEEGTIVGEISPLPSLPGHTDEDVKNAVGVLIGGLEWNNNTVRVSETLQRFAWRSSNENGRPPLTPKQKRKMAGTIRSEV

[11] = target: T4, Apoptotic protease-activating factor 1 (Homo sapiens, UniProt O14727); type: functional
T4 sequence (O14727 whole entry): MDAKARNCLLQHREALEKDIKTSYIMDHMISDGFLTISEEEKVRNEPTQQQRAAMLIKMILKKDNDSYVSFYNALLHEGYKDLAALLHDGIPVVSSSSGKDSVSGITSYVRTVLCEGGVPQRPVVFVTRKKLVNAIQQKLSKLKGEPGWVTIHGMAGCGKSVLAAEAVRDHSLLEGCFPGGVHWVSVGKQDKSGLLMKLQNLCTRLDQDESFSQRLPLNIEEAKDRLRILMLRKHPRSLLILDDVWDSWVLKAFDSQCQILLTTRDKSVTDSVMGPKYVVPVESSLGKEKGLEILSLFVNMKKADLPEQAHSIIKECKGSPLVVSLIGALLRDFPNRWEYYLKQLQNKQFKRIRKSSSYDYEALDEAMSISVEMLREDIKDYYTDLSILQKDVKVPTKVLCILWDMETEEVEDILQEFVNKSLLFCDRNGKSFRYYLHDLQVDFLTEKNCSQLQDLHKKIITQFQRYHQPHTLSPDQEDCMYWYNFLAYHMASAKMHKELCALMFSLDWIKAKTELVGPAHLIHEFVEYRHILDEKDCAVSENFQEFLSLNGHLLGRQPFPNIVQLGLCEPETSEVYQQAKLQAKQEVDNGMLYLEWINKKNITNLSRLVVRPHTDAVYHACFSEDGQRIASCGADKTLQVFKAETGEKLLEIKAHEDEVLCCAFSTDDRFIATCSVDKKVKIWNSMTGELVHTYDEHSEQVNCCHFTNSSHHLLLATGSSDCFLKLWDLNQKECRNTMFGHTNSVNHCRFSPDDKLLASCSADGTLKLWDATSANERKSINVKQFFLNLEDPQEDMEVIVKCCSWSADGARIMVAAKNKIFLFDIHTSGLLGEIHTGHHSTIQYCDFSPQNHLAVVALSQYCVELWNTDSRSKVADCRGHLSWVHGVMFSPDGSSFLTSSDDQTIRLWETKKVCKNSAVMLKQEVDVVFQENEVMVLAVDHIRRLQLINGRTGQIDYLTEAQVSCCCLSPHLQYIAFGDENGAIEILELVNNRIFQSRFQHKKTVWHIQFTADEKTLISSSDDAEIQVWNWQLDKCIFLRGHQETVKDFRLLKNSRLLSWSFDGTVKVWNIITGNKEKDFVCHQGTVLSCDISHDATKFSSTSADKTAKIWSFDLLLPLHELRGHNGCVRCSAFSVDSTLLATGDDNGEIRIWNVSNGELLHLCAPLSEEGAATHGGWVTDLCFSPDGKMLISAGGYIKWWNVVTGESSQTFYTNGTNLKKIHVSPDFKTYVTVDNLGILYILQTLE

[12] = target: T5, Replicative DNA helicase DnaB (Mycobacterium tuberculosis, UniProt P9WMR3); test: DnaB intein splicing inhibitors, dose response, biochemical, cell-free fluorescence (AID 449749); type: functional
T5 sequence (P9WMR3 whole entry): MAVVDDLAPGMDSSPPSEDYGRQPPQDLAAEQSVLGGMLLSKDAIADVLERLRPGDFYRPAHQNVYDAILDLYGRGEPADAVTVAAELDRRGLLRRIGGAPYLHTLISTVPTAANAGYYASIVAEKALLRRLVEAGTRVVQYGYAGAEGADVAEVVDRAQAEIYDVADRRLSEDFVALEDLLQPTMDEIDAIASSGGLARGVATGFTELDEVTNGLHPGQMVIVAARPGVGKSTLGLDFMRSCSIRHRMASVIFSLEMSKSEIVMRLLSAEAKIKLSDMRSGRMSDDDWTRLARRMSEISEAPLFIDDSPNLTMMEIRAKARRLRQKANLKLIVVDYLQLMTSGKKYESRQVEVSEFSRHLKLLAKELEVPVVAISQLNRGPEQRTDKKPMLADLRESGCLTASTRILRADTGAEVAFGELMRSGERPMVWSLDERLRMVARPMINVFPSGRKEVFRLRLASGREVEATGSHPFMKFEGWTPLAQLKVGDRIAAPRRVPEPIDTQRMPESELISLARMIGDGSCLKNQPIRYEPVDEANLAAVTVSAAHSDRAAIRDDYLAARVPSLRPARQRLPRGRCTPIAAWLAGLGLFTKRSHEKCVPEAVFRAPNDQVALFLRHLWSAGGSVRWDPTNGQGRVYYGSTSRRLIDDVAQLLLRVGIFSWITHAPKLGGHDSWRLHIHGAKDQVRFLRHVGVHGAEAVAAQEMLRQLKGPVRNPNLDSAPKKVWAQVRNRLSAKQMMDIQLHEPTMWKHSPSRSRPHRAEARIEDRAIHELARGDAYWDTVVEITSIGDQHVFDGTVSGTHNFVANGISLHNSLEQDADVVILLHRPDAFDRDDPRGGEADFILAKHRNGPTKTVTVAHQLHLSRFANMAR

Vero = test: viability of Vero cells under compound – cytotoxicity control for flavivirus capping enzyme inhibitors (AID 588742); type: functional; settings: Chlorocebus sabaeus
Genome polyprotein = Genome polyprotein (dengue virus type 2, UniProt P29990); test: flavivirus cap methylation enzyme inhibition – biochemical, confirmation dose response, primary screen (AID 588689); type: functional
Genome polyprotein, sequence (P29990 2492-3391 limits assumed): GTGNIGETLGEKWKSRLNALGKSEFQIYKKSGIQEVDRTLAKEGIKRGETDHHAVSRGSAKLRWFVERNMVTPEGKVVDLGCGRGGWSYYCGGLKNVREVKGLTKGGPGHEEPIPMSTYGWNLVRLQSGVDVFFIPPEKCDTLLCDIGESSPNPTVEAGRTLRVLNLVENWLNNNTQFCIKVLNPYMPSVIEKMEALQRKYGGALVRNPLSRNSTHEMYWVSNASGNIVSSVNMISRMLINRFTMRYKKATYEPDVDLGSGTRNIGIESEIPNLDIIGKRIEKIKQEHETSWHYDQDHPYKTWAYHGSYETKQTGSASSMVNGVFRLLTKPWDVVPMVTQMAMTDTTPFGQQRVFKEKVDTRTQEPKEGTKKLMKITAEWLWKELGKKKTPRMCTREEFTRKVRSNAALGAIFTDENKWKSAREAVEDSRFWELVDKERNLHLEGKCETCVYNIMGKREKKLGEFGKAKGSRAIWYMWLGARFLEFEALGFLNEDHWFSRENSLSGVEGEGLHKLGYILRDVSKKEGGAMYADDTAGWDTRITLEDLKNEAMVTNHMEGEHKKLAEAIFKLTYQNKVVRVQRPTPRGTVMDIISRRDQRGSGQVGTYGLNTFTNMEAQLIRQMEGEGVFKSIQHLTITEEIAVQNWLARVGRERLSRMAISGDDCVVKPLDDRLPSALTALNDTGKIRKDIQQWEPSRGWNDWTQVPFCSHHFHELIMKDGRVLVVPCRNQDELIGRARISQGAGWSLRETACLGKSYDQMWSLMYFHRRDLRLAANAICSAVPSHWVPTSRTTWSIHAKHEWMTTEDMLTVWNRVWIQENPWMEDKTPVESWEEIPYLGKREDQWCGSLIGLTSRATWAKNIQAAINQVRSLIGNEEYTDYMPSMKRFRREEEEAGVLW

## O=c1cc(-c2ccc(O)cc2)oc2ccc3ccccc3c12
[1]
  AC50: 2.15 µM (active)
Paired box protein Pax-8
  AC50: 8.88 µM (active)
[2]
  AC50: 41.6 µM (active)
[3]
  AC50: 5.41 µM (active)
[4]
  AC50: 31.3 µM (active)

## Cc1c(NC(=O)c2cccc(NC(=O)COc3ccccc3C#N)c2)c(=O)n(-c2ccccc2)n1C
[5]
  AC50: 4.53 µM (active)
[6]
  AC50: 2.66 µM (active)
HEK293
  AC50: 5.77 µM (active)

## Cc1cccc(C(=O)Nc2ccc(C(=O)N/N=C/c3ccco3)cc2)c1
[7]
  IC50: 4.79 µM (active)

## CCN(C1CCCCC1)S(=O)(=O)c1ccc(S(=O)(=O)NCc2ccncc2)cc1
[8]
  AC50: 3.52 µM (active)
INS1
  AC50: 5.12 µM (active)
[9]
  AC50: 7.99 µM (active)
Cytochrome P450 1A2
  AC50: 15.8 µM (inconclusive)

## COc1ccc(S(=O)(=O)N(C)C[C@@H]2Oc3ccc(NC(=O)C4CCCCC4)cc3CC(=O)N([C@H](C)CO)C[C@@H]2C)cc1
[8]
  AC50: 2.96 µM (active)
[10]
  AC50: 0.574 µM (active)
[9]
  AC50: 4.51 µM (active)

## c1ccc2c(c1)nc(N1CCCCCC1)c1ccccc12
[7]
  IC50: 17.4 µM (active)

## Cc1cc(C(=O)N/N=C/c2c(C)nn(-c3ccccc3)c2O)[nH]n1
Protein RecA
  EC50: 27 µM (active)
Nonstructural protein 1
  IC50: 11.8 µM (active)
[11]
  IC50: 6.97 µM (active)
[12]
  AC50: 226 µM (active)

## c1coc(-c2nc3nc4ccccc4n3nc2-c2ccco2)c1
Vero
  CC50: > 40 µM (active)
Genome polyprotein
  IC50: 99.3 µM (active)
